This is an account of results in US8580847B2, “Antrocin containing pharmaceutical compositions for inhibiting cancer cells” (Chaoyang University of Technology, priority 2010, dated 2013).

Data set [1] concerns human cancer cell lines (HT-29, HCT116, Huh7, A549, MCF7, MDA-MB-231). In words: SRB anti-proliferative assay on human cancer cell lines. It counts as cell-based. The protocol: Antrocin was dissolved in DMSO at a concentration of 10 mM and was stored in a dark-colored bottle at −20° C. as a stock solution. The stock was diluted to the required concentration with serum-free medium immediately before use. Before treatment with antrocin, the medium was removed when cells were about 70% confluent, the cells were starved overnight in serum-free medium and then exposed to antrocin at different concentrations (0-10 μM) and for different periods of time (0-48 h).
(§1) Briefly, three breast cancer cells (MDA-MB-231, MCF-7 & MCF-10A) were seeded into 96-well plates in growth medium at 3000 cells/well for 24 h. Then, the cells were treated with antrocin at various concentrations (0, 0.5, 1, 3, 5 and 10 μM) for various periods of time. After the exposure period, the cells were fixed with TCA for 1 hour and stained with 100 μL of 0.4% (w/v) SRB for 10 minutes at room temperature. The bound dye was solubilized in 20 mM Tris base (100 μL/well) for 5 minutes on a shaker. Optical densities were read on a microplate reader (Molecular Devices, Sunnyvale, Calif.) at 562 nm.
(§2) The anti-proliferative effects of antrocin were assessed on human cancer cell lines, using the SRB assay, with normal foreskins fibroblast HS68 cells and non-tumorgenic breast epithelial MCF-10A cells as controls.

Data set [2] relates to MDA-MB-231 human breast cancer cells. In words: SRB cytotoxicity assay, MDA-MB-231. It counts as cell-based. The protocol: (§3) MCF-7 and MDA-MB-231 breast tumor cell lines came from a pleural effusion of patients with invasive breast carcinoma. The MCF-10A cell line is a non-tumorigenic epithelial cell line. All three human cell lines were provided by the American Type Culture Collection (ATCC). In the present invention, MDA-MB-231 cells were grown in Dulbecco's Modified Eagle's Medium (DMEM) media with 10% FBS, 2 mM glutamine, 100 μg/ml streptomycin in a 37° C. humidified atmosphere with CO2. MCF-7 were cultured in DMEM media supplemented with 2 mM L-glutamine, 100 μg/ml streptomycin, 10% fetal bovine serum, 0.04 UI/ml insulin in a humidified atmosphere at 37° C. containing 5% CO2. MCF10A cells were maintained in DMEM containing 5% horse serum, 2 mM L-glutamine, 20 μg/ml gentamycin, 20 ng/ml epidermal growth factor, 100 ng/ml cholera toxin, 0.25 UI/ml insulin and 0.5 μg/ml hydrocortisone held at 37° C. with 5% CO2.
(§4) Antrocin was dissolved in DMSO at a concentration of 10 mM and was stored in a dark-colored bottle at −20° C. as a stock solution. The stock was diluted to the required concentration with serum-free medium immediately before use. […]
(§5) Briefly, three breast cancer cells (MDA-MB-231, MCF-7 & MCF-10A) were seeded into 96-well plates in growth medium at 3000 cells/well for 24 h. […] Optical densities were read on a microplate reader (Molecular Devices, Sunnyvale, Calif.) at 562 nm.
A general note: In SRB staining, fixed cells bind dye roughly in proportion to their protein.

The subject of data set [3] is MCF-7 human breast carcinoma cells. In words: SRB cytotoxicity assay, MCF-7. It is filed as cell-based. The protocol: as §3, §4, §5
Data set [4] concerns normal foreskins fibroblast HS68 cells. Put plainly: SRB assay, normal HS68 cells. It counts as cell-based, human. The settings on record: SRB assay (FIG. 2). The protocol: as §1, §2
Data set [5] relates to non-tumorgenic breast epithelial MCF-10A cells. Put plainly: SRB assay, non-tumorgenic MCF-10A cells. It counts as cell-based, human. The settings on record: SRB assay (FIG. 2). The protocol:
as §3, §4, §5

In data set [6] the test system is MDA-MB-231 cells. Put plainly: Cell morphology studies by phase microscopy. It is filed as cell-based, human. The settings on record: 48 hr incubation, various concentration, phase-contrast microscope (FIG. 4). The protocol: After treatment with different dose of antrocin for 48 hr, the MDA-MB-231 cells, cultured on glass coverslips, were washed three times with PBS, fixed with 3% paraformaldehyde for 10 min at room temperature, and then washed in PBS again, and the morphological changes were observed. Cell morphology was then observed by phase microscopy.

Data set [7] has as its system MDA-MB-231 cells. Put plainly: Cell cycle analysis by PI flow cytometry. It is filed as cell-based, human. The settings on record: 48 hr, MDA-MB-231 (FIG. 5). The protocol: A total of 2×10^5 MDA-MB-231 cells/dish were seeded onto each 60 mm dish and incubated for 24 h. Various concentration of antrocin were added to the culture media, and the cells were incubated for an additional 48 hr. Cells were harvested and fixed in cold 75% ethanol at 4° C. for 16 h and incubated with 20 μg/ml RNase A at 37° C. for 30 min and then with 40 μg/ml propidium iodide (PI) at 4° C. for 30 min. Samples were immediately analyzed with a FACSCalibur flow cytometer (Becton, Dickinson and Co., San Jose, Calif). Approximately 10,000 counts were made for each sample. The percentage distributions of apoptotic cells were calculated by CellQuest™ software (Becton, Dickinson and Co., San Jose, Calif.).
(In general: A flow cytometer gives signals particle by particle.)

In the case of `C=C1CCC2C(C)(C)CCCC23C(=O)OCC13` (centres unmarked) [antrocin], the “inhibition activity to cancer cell lines” value in data set [1] (HT-29, HCT116, Huh7, A549, MCF7, MDA-MB-231) is given as “high inhibition activity”. Moreover, the “growth of cancer cells” value in data set [1] (SRB assay, all cancer cells tested (FIG. 1)) is reported as “inhibited in a concentration-dependent manner”. Further, the “cell growth inhibition compared with doxorubicin or cisplatin” value in data set [2] (MDA-MB-231, 48 hr treatment, same dosage (FIG. 3)) was “more potent than doxorubicin or cisplatin”. Besides, in data set [2] (antrocin concentration of 0.5 μM), the MDA-MB-231 cell growth entry is “significantly inhibited”. Also, in data set [3], the “cell growth inhibition, MDA-MB-231 compared with MCF-7” value is recorded as “more effective in MDA-MB-231 cells in comparison with MCF-7”. In addition, the “antiproliferative effect on HS68 cells” value in data set [4] is “no antiproliferative effect”. Further, the “antiproliferative effect / growth inhibition on MCF-10A cells” value in data set [5] is “no antiproliferative effect”; in data set [5] (listed as Antrocin) it was “no significant inhibition”. For the same compound, the morphological alterations entry in data set [6] is recorded as “cell shrinkage, membrane blebbing, apoptotic body formation”. Besides, in data set [7] (10 μM antrocin), the “progression to apoptosis (apoptotic cells)” value worked out at 58.3%. The cell cycle distribution result in data set [7] (different dose) is recorded as “accumulated progressively in subG1 phase”.
